Key:
[1] = target: T1, Porcine ventricle myofibrils (ventricular myosin ATPase) (Sus scrofa, UniProt P79293); experiment: Myofibril ATPase assay, porcine ventricle myofibrils; format: biochemical, porcine (Yucatan minipigs); conditions: porcine ventricle myofibrils
T1 construct: Myofibrils from porcine cardiac muscle was isolated from the left ventricle of Yucatan minipigs; tissue Exemplar Genetics; host or cells: left ventricle of Yucatan minipigs, myofibrils prepared in house
In short: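 ATPase activity of porcine left-ventricle myofibrils (Yucatan minipig) was followed through PK-LDH coupling as NADH loss at 340 nm, read every 1.5-2 min for 75 min. Slopes were normalised to vehicle wells and fitted to a 4-parameter logistic model. Values are Y75, the concentration giving a 25% drop in activity, or Y125 for activators.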

[2] = tested on: Rabbit Psoas myofibrils (skeletal myosin ATPase); experiment: Myofibril ATPase assay, rabbit psoas (skeletal) myofibrils; format: biochemical; conditions: rabbit psoas myofibrils
In short: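 ATPase activity of Triton-washed myofibrils was measured by PK/LDH coupling, following NADH loss at 340 nm every 1.5–2 min for 75 min in PIPES/Ca/EGTA buffer at pH 7.0. Slopes, normalized to vehicle (100%), were fitted to a 4-parameter logistic model. Values are Y75 (25% inhibition) or Y125 (activators).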

[3] = tested on: Porcine atria myofibrils (atrial myosin ATPase); experiment: Myofibril ATPase assay, porcine atria myofibrils; format: biochemical; conditions: porcine atria myofibrils
In short: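 Porcine atrial myofibrils were tested in a PK/LDH-coupled system where ADP from myosin ATPase drives NADH oxidation. Absorbance at 340 nm was read every 1.5-2 min for 75 min and slopes were normalized to vehicle wells. A 4-parameter logistic fit gave Y75 (25% inhibition) or Y125 (activation) concentrations.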

[4] = Y75 value (75% activity relative to no compound)
[5] = ‡ Y125 value, not a Y75 value (125% activity relative to no compound)

T1 sequence (P79293 whole entry): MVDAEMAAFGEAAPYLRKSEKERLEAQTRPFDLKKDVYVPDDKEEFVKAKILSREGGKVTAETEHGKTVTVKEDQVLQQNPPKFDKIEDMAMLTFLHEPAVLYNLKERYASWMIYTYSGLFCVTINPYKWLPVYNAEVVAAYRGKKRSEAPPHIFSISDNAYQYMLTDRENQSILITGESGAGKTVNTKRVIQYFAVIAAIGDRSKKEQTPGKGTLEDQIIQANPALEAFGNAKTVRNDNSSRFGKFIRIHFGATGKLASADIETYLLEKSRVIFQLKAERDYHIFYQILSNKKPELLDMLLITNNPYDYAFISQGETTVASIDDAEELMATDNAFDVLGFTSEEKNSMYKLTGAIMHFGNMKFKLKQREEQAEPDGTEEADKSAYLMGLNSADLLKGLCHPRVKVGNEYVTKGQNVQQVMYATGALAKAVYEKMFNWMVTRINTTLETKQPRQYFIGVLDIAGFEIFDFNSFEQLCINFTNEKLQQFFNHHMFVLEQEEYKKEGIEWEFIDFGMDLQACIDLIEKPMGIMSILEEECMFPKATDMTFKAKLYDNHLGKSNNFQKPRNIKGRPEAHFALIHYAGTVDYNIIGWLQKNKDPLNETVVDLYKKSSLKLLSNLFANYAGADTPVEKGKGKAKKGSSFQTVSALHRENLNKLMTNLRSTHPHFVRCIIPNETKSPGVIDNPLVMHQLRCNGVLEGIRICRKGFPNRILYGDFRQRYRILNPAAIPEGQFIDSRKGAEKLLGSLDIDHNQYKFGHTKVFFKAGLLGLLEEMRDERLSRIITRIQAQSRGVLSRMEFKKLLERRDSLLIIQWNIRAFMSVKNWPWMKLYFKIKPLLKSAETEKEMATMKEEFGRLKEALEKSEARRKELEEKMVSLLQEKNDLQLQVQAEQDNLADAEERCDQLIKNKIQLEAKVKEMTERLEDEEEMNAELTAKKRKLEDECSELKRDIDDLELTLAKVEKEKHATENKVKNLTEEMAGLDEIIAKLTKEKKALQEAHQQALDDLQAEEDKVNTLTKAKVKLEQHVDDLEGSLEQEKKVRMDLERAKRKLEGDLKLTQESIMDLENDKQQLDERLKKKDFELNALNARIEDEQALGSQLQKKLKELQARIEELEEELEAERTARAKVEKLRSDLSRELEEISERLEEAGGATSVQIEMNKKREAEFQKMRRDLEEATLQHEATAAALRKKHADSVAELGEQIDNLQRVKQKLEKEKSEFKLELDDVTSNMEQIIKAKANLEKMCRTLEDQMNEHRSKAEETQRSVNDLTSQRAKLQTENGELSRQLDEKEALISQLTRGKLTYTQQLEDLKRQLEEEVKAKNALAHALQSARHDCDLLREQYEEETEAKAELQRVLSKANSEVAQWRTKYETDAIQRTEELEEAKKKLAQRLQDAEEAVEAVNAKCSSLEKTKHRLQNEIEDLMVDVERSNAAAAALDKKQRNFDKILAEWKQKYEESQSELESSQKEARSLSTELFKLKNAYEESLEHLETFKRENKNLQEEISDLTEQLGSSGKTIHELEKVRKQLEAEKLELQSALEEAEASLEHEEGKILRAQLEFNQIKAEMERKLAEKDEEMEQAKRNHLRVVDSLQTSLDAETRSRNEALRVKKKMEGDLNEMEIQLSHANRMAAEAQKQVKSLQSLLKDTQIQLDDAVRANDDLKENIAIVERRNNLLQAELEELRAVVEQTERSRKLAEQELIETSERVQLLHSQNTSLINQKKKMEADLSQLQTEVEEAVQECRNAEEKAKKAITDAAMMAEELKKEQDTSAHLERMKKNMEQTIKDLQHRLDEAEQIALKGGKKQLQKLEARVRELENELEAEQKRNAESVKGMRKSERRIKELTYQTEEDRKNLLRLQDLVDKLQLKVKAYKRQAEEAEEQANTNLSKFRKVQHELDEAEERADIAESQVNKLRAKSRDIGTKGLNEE

Ventricular EC25 ([1]; Y75 value (no ‡ mark)) [µM] | Skeletal EC25 ([2]; Y75 value (no ‡ mark)) [µM] | Atrial EC25 ([3]; Y75 value (no ‡ mark)) [µM] | Ventricular EC25 ([1]; Y75 value) [µM] | Skeletal EC25 ([2]; Y75 value) [µM] | Atrial EC25 [3, 4] [µM] | SMILES | other results
 |  |  | 100.00 | 100.00 | 100.00 | Cc1nccc2[nH]c(=O)c(CC(=O)N[C@H](CO)c3ccncc3)c(C)c12 [compound 292] | 
 |  |  | 0.62 | 0.07 | 0.09 | Cc1c(CC(=O)N[C@@H](C)c2ncc(C#N)cc2F)c(=O)[nH]c2ccnc(C(F)(F)F)c12 (single isomer, unassigned) [compound 227] | 
 |  |  | 100.00 | 100.00 | 100.00 | Cc1c(CC(=O)N[C@@H](C)c2ccc(F)cc2F)c(=O)[nH]c2cnnc(O)c12 [compound 240] | 
 |  |  | 42.84 | 0.35 | 100.00 | Cc1cc(F)cc(F)c1[C@@H](C)NC(=O)Cc1c(C)c2c(C)nccc2[nH]c1=O (single isomer, unassigned) [compound 404] | 
 |  |  | 100.00 | 100.00 | 100.00 | Cc1nccc2[nH]c(=O)c(CC(=O)N[C@@H](CO)c3cccnc3)c(C)c12 (single isomer, unassigned) [compound 312] | 
3.5 | 0.41 | 1.28 |  |  |  | Cc1c(CC(=O)N[C@@H](C)c2ccc(C#N)nn2)c(=O)[nH]c2cc(F)c(F)cc12 [compound 1043] | 
 |  |  | 0.18 | 0.02 | 0.31 | Cc1nccc2[nH]c(=O)c(CC(=O)N[C@H]3CCc4cc(C#N)cc(F)c43)c(C)c12 (single isomer, unassigned) [compound 198] | 
 |  |  | 100.00 | 100.00 | 100.00 | Cc1nccc2[nH]c(=O)c(CC(=O)N[C@@H](CO)Cc3ccccc3)c(C)c12 [compound 496] | 
 |  |  | 4.23 | 0.18 | 0.11 | Cc1nccc2[nH]c(=O)c([C@H](C)C(=O)N[C@@H](C)c3ccc(C#N)cc3F)c(C)c12 (single isomer, unassigned) [compound 196] | 
0.14 | 0.04 | 0.06 |  |  |  | Cc1ccncc1[C@@H](C)NC(=O)Cc1c(C)c2c(C)c(F)ccc2[nH]c1=O [compound 1046] | 
 |  |  | 48.43 | 2.19 | 2.66 | Cc1c(CC(=O)N[C@@H](C)c2ccc(F)cc2F)c(=O)[nH]c2ccnnc12 [compound 418] | 

The remaining lines, values behind:

SMILES | Ventricular EC25 ([1]; Y75 value (no ‡ mark)) [µM] | Skeletal EC25 ([2]; Y75 value (no ‡ mark)) [µM] | Atrial EC25 ([3]; Y75 value (no ‡ mark)) [µM] | Ventricular EC25 ([1]; Y75 value) [µM] | Skeletal EC25 ([2]; Y75 value) [µM] | Atrial EC25 [3, 4] [µM] | other results
Cc1c(C2(C(=O)N[C@@H](C)c3ncc(C#N)cc3F)CC2)c(=O)[nH]c2ccc(F)cc12 (single isomer, unassigned) [compound 2597] | 0.39 | 0.12 | 0.09 |  |  |  | 
C[C@H](NC(=O)Cc1c(C2CC2)c2c(F)c(F)ccc2[nH]c1=O)c1ccc(C#N)nn1 (single isomer, unassigned) [compound 2066] | 7.88 | 0.15 | 1.06 |  |  |  | 
Cc1c(C(F)(F)C(=O)N[C@@H](C)c2ccc(F)cc2F)c(=O)[nH]c2ccc(F)cc12 [compound 4816] | 0.26 | 0.15 | 0.15 |  |  |  | 
CC(C(=O)N[C@@H](C)c1ccc(F)cc1F)c1cc2c(Br)cccc2[nH]c1=O (stereo partly drawn) [compound 94] | 100.00 | 0.22 | 6.81 |  |  |  | 
C[C@@H](NC(=O)Cc1c(C2CC2)c2c(F)c(F)ccc2[nH]c1=O)c1ccc(C#N)cn1 [compound 25] | 100.00 | 1.68 | 100.00 |  |  |  | 
Cc1c(CC(=O)N[C@H](C)c2ncc(C3COC3)cn2)c(=O)[nH]c2ccc(F)c(F)c12 (single isomer, unassigned) [compound 2043] | 4.16 | 7.03 | 1.01 |  |  |  | 
C[C@H](NC(=O)C(F)(F)c1cc2c(C#N)c(F)ccc2[nH]c1=O)c1ncc(C#N)cc1F (single isomer, unassigned) [Compound 2530] | 0.21 | 0.08 | 0.20 |  |  |  | 
Cc1c(CC(=O)N[C@H](C)c2ccc(C#N)cn2)c(=O)[nH]c2cccc(C#N)c12 [compound 1076] | 1.49 | 0.35 | 1.89 |  |  |  | 
C[C@H](NC(=O)Cc1cc2c(F)c(F)ccc2[nH]c1=O)c1cnc(C#N)cn1 (single isomer, unassigned) [compound 12] | 0.11 | 0.03 | 0.03 |  |  |  | 
Cc1c(CC(=O)N[C@H](C)c2cnc(C#N)nc2)c(=O)[nH]c2ccc(F)cc12 [compound 1100] | 2.27 | 0.53 | 0.77 |  |  |  | 
Cc1c(C(F)(F)C(=O)N[C@@H](C)c2cc(C#N)ccn2)c(=O)[nH]c2ccc(F)cc12 (single isomer, unassigned) [compound 2576] | 100.00 | 76.36 | 38.95 |  |  |  | 
Cc1nccc2[nH]c(=O)c(C(F)(F)C(=O)N[C@@H](C)c3ccc(C#N)cc3F)c(C)c12 (single isomer, unassigned) [compound 3508] |  |  |  | 0.29 | 0.07 | 0.22 | 
Cc1c(CC(=O)N[C@H](C)c2ccc(C#N)cn2)c(=O)[nH]c2ccc(C(F)(F)F)nc12 [compound 459] |  |  |  | 100.00 | 100.00 | 3.13 | 
C[C@H](NC(=O)[C@H](C)c1cc2c(F)cccc2[nH]c1=O)c1ccc(F)cc1F (single isomer, unassigned) [compound 103] | 100.00 | 1.64 | 1.13 |  |  |  | 
Cc1c(CC(=O)N[C@@H](C)c2ccc(C#N)nn2)c(=O)[nH]c2cccc(C#N)c12 [compound 1039] | 0.67 | 0.08 | 0.22 |  |  |  | 
C[C@H](NC(=O)Cc1c(C(F)(F)F)c2c(C3CC3)nccc2[nH]c1=O)c1ncc(C#N)cn1 (single isomer, unassigned) [compound 3002] |  |  |  | 100.00 | 100.00 | 100.00 | 
Cc1c([C@@H](C)C(=O)N[C@H](C)c2ncc(C#N)cc2F)c(=O)[nH]c2ccc(F)c(F)c12 (relative stereo) [compound 2600, Rel-(2R*)-N-[(1R)-1-(5-cyano-3-fluoropyridin-2-yl)ethyl]-2-(5,6-difluoro-4-methyl-2-oxo-1H-quinolin-3-yl) propanamide] | 100.00 | 100.00 | 0.67 |  |  |  | 
Cc1c(CC(=O)N[C@@H](C)c2ncc(C#N)cc2F)c(=O)[nH]c2ccc(O)nc12 [compound 166] |  |  |  | 100.00 | 3.22 | 1.91 | 
C[C@H](NC(=O)Cc1c(C(F)(F)F)c2cc(F)ccc2[nH]c1=O)c1ccc(F)cc1F [compound 115] | 0.32 | 0.02 | 0.05 |  |  |  | 
Cc1c(C2(C(=O)N[C@H](C)c3cc(C#N)ccn3)CC2)c(=O)[nH]c2ccc(F)cc12 (single isomer, unassigned) [compound 2577] | 100.00 | 100.00 | 19.55 |  |  |  | 
Cc1c(CC(=O)N[C@H](CO)c2ncc(C#N)cc2F)c(=O)[nH]c2ccnc(C#N)c12 (single isomer, unassigned) [compound 245] |  |  |  | 9.46 | 0.93 | 8.37 | 
Cc1c(C2(C(=O)N[C@@H](C)c3ncc(C#N)cn3)CC2)c(=O)[nH]c2ccc(F)cc12 (single isomer, unassigned) [compound 2591] | 18.78 | 100.00 | 1.52 |  |  |  | 
Cc1c(C(F)(F)C(=O)N[C@@H](C)c2ncc(C#N)cc2F)c(=O)[nH]c2ccc(F)cc12 (single isomer, unassigned) [compound 2607] | 0.17 | 0.04 | 0.07 |  |  |  | 
Cc1c(C2(C(=O)NC(C)c3cccc(C#N)n3)CC2)c(=O)[nH]c2ccc(F)cc12 (single isomer, unassigned) [Compound 2580] | 100.00 |  | 4.52 |  |  |  | Skeletal EC25 [2, 5]: 17.17‡ μM
Cc1c(C2(C(=O)N[C@H](C)c3cccc(C#N)n3)CC2)c(=O)[nH]c2ccc(F)c(F)c12 (single isomer, unassigned) [compound 2547] |  | 0.91 |  |  |  |  | Ventricular EC25 [1, 5]: 58.38‡ μM; Atrial EC25 [3, 5]: 100.00‡ μM
